Read-outs that look alike come from different tables or passages of the source.
Legend:
[1] = Pharmacokinetic study of YCHD components and phase II metabolites in ANIT-induced cholestatic rats (UHPLC-MS/MS, sulfatase enzymolysis); format: in vivo, rat; settings: for AUC(0-∞) / Ka: Model group (ANIT 50 mg/kg cholestatic rats); for AUC(0-∞) / Ka / Cmax reduced by, cholestatic model rats compared with normal rats / AUC(0-∞) increased by, cholestatic model rats compared with normal rats / Cmax increased by, cholestatic model rats compared with normal rats / AUC(0-∞) reduced by, cholestatic model rats compared with normal rats: single oral YCHD 12 g/kg; for Cmax / Tmax / CL/F / MRT inf / Vd/F / half-life: rat, po, 12 g/kg; for CL/F: read-out: CLz/F; for MRT inf: read-out: MRT (0-∞) (converted); for Vd/F: read-out: Vz/F; for half-life: read-out: t1/2z; for in vivo absorption and excretion processes in cholestatic rats (comparison of Ka and Ke): versus normal rats, oral YCHD 12 g/kg
Method: To explore the pharmacokinetic properties of YCHD following intragastric administration in rats, a rapid and sensitive method involving the use of UHPLC-MS/MS (Agilent 6460 series, Agilent Technologies, Santa Clara, CA, United States) was developed and validated for the simultaneous quantification of 10 active components of rat plasma. The quantification was conducted in ESI negative ionization mode, and the mass spectrometry conditions were as follows: capillary voltage, 3500 V; gas flow, 12 L/min; nebulizer, 40 psi; gas temperature, 350°C; and delta EMV (-), 400.
To each 50 μL plasma sample, 10 μL of internal standard solution (paeoniflorin, 1000 ng/mL) and 300 μL of a mixed solution of methanol and acetonitrile (v/v, 1:1; containing 1% formic acid) were added. Subsequently, the solution was vortex mixed for 5 min. After centrifugation at 15,000 rpm for 5 min, the supernatant was transferred completely into a tube, before being evaporated under N2 at 40°C. The residue was then dissolved in 50 μL of 50% methanol–water (v/v, 1:1) through vortexing for 5 min, after centrifugation at 15,000 rpm for 10 min. Finally, 5 μL of the supernatant sample was injected into the UHPLC-MS/MS system for analysis.
The rats were randomly divided into two groups (n = 5 for each group). […] The blood samples were centrifuged at 4000 rpm for 10 min, and the supernatant plasma was harvested. Plasma samples (50 μL) were immediately processed as outlined in Section “Chromatographic and Mass Spectrometry Conditions.”
Additional plasma samples (50 μL) were enzymatically hydrolyzed with 50 μL of enzyme solution (65.86 mg of sulfatase, dissolved in 2 mL of sodium acetate buffer, pH 5.0) for phase II metabolite quantification, in accordance with our previous study ([Ding et al., 2012]). After being vortex mixed for 5 min, the mixture was incubated at 37°C for 30 min and then returned to room temperature. Subsequently, the samples were processed as outlined in Section “Chromatographic and Mass Spectrometry Conditions” for UHPLC-MS/MS analysis. During routine analysis, each analytical run included six blank plasma samples, a set of calibration samples, a set of QC samples, and unknowns.
All data are presented as mean ± SD. A one-way analysis of variance was used to compare data between two groups using SPSS (Version 21.0). The differences were considered to be statistically significant when p < 0.05 and highly significant when p < 0.01 or p < 0.001. Pharmacokinetic data analysis was performed using DAS 2.1.1 software (Mathematical Pharmacology Professional Committee of China, Shanghai, China).
The specific contents of the phase II metabolites of these components were detected indirectly by evaluating the content difference of their prototypes in samples after enzymolysis and before enzymolysis
CG = Ca −[MG × (CGG/MGG + CGe/MGe)]
Ca, CGG, and CGe represent the concentration of genipin, genipin-1-β-D-gentiobioside, and geniposide after enzymolysis of sulfatase, respectively. MG, MGG-, and MGe represent the mass of genipin, genipin-1-β-D-gentiobioside, and geniposide, respectively.

MRP2 = experiment: Expression level of MRP2 in rat liver by UHPLC-MS/MS; format: in vivo
Method: (§4) Male Sprague Dawley rats (230 ± 20 g, 6–8 weeks of age) were purchased from B&K Laboratory Animal, Corp. Ltd. (Shanghai, China) and fed in the Laboratory Animal Center of Shanghai University of Traditional Chinese Medicine. All rats were allowed to acclimatize for 3 days before experimentation. The rats were randomly divided into six groups (n = 5 for each group). […] The rats in groups 4, 5, and 6 were intragastrically administered YCHD every 24 h for 10 consecutive days. The rats in group 3 were orally administered UDCA at a dose of 100 mg/kg every 24 h for 10 consecutive days, which is well-documented to treat induced liver injury and cholestasis ([Chen et al., 2016]; [Cao et al., 2017]). Moreover, groups 1 and 2 were intragastrically treated with physiological saline (0.9%) at a dose of 1 mL/100 g. […] At the end of the experiment, all rats were euthanized by CO2 inhalation. The serum samples were stored at -70°C until analysis, and liver samples were isolated and stored at -70°C for further analysis, whereas the central part of the right large lobe of the liver was used for histological examination. […]

BSEP = experiment: Expression level of BSEP in rat liver by UHPLC-MS/MS; format: in vivo
Method: (§1) Male Sprague Dawley rats (230 ± 20 g, 6–8 weeks of age) were purchased from B&K Laboratory Animal, Corp. Ltd. (Shanghai, China) and fed in the Laboratory Animal Center of Shanghai University of Traditional Chinese Medicine. All rats were allowed to acclimatize for 3 days before experimentation. The rats were randomly divided into six groups (n = 5 for each group). […] Moreover, groups 1 and 2 were intragastrically treated with physiological saline (0.9%) at a dose of 1 mL/100 g. […] At the end of the experiment, all rats were euthanized by CO2 inhalation. The serum samples were stored at -70°C until analysis, and liver samples were isolated and stored at -70°C for further analysis, whereas the central part of the right large lobe of the liver was used for histological examination.
(§2) Biotransformation of xenobiotics and endogenous compounds is a crucial step in the absorption and elimination of potentially harmful substances from the human body, a process that could be affected by the levels of pharmacokinetic enzymes and transporter proteins. […]
(§3) Total membrane protein was isolated (in triplicate) from liver tissue according to the Native Membrane Protein Extraction Kit protocol. Subsequently, protein concentrations were determined by applying the BCA Protein Assay Kit. […]

OCT1 = experiment: Expression level of OCT1 in rat liver by UHPLC-MS/MS; format: in vivo
Method: as §1, §2, §3

NTCP = experiment: Expression level of NTCP in rat liver by UHPLC-MS/MS; format: in vivo
Method: as §4

MDR1 = experiment: Expression level of MDR1 in rat liver by UHPLC-MS/MS; format: in vivo
Method: as §1, §2, §3

[2] = UDCA group, ANIT-treated rats, mean ± S.D.
[3] = UDCA-treated cholestatic rats, liver, as compared with the control group, p < 0.05

| SMILES | AUC(0-∞) ([1]; plasma) [µg·min/L] | Ka ([1]; plasma) [min⁻¹] | Cmax reduced by, cholestatic model rats compared with normal rats [1] [%] | in vivo absorption and excretion processes in cholestatic rats (comparison of Ka and Ke) [1] | Cmax ([1]; plasma) [ng/mL] | Tmax ([1]; plasma) [h] | MRT inf ([1]; plasma) [h] | CL/F ([1]; plasma) [mL/min/kg] | AUC(0-∞) reduced by, cholestatic model rats compared with normal rats [1] [%] | further results |
| --- | --- | --- | --- | --- | --- | --- | --- | --- | --- | --- |
| COC(=O)C1=COC(OC2OC(CO)C(O)C(O)C2O)C2C(CO)=CC(O)C12 (stereo not shown) [Scandoside methyl ester] | 300942.4 ± 177466.0 | 22.6 ± 38.8 | 26.3 | inhibited | – | – | – | – | – | Cmax ([1]; Sprague Dawley, in vivo): 93.8 ± 13.7 ng/mL; Tmax ([1]; Sprague Dawley, in vivo): 4.4 h; CL/F ([1]; Sprague Dawley, in vivo): 98 ± 16 mL/min/kg; MRT inf ([1]; Sprague Dawley, in vivo): 16.7 h; Vd/F ([1]; in vivo): 95.6 ± 26.6 L/kg; half-life ([1]; in vivo): 11.5 ± 3.28 h |
| O=C(O)C1=CO[C@@H](O[C@@H]2O[C@H](CO)[C@@H](O)[C@H](O)[C@H]2O)[C@@H]2C(CO)=CC[C@H]12 [Geniposidic acid] | 3007701.6 ± 1408367.9 | 41280.6 ± 37036.2 | – | significantly enhanced | 1690 ± 251 | 4 | 9.5 | – | – | Vd/F ([1]; Sprague Dawley, plasma): 4990 ± 1180 L/kg; half-life ([1]; Sprague Dawley, plasma): 5.23 ± 1.44 h; AUC(0-∞) increased by, cholestatic model rats compared with normal rats [1]: 85.5%; Cmax increased by, cholestatic model rats compared with normal rats [1]: 153.7% |
| CC(=O)c1ccc(O)cc1 [4-hydroxyacetophenone, 4-Hydroxyacetophenone] | 113028.5 ± 56412.0 | 202.7 ± 235.9 | 57.2 | inhibited | 676 ± 85 | 0.25 | 18.6 | 215 ± 37 | 41.2 | Vd/F ([1]; plasma): 429 ± 287 L/kg; half-life ([1]; plasma): 25.9 ± 21 h |
| C[C@H](CCC(=O)O)[C@H]1CC[C@H]2[C@@H]3[C@@H](O)C[C@@H]4C[C@H](O)CC[C@]4(C)[C@H]3CC[C@]12C [UDCA, Ursodeoxycholic acid] | – | – | – | – | – | – | – | – | – | Mrp2 expression level in rat liver (MRP2; [2]): 2.21±0.87 fmol/μg protein; MRP2 expression upregulated, fold (MRP2; UDCA-treated cholestatic rats, liver, not statistically significant): 1.5 fold; Bsep expression level in rat liver (BSEP; [2]): 18.1±2.56 fmol/μg protein; BSEP level, fold higher (BSEP; [3]): 1.2 fold; Oct1 expression level in rat liver (OCT1; [2]): 2.22±0.59 fmol/μg protein; OCT1 level, fold higher (OCT1; [3]): 2.1 fold; Ntcp expression level in rat liver (NTCP; [2]): 4.22±1.51 fmol/μg protein; NTCP level, fold higher (NTCP; [3]): 2.2 fold; Mdr1 expression level in rat liver (MDR1; [2]): 0.67±0.32 fmol/μg protein; MDR1 level, fold higher (MDR1; [3]): 2.4 fold |
| COC(=O)C1=CO[C@@H](O[C@@H]2O[C@H](CO)[C@@H](O)[C@H](O)[C@H]2O)[C@@H]2C(CO)=CC[C@H]12 [Geniposide] | 956445.5 ± 420665.9 | 1543.0 ± 592.8 | – | significantly enhanced | – | – | – | – | – | Cmax ([1]; in vivo): 578 ± 59.6 ng/mL; Tmax ([1]; in vivo): 0.45 h; CL/F ([1]; in vivo): 45 ± 12 mL/min/kg; MRT inf ([1]; in vivo): 7.5 h; Vd/F ([1]; in vivo): 22.4 ± 7.5 L/kg; half-life ([1]; in vivo): 5.64 ± 0.467 h; AUC(0-∞) increased by, cholestatic model rats compared with normal rats [1]: 148.9%; Cmax increased by, cholestatic model rats compared with normal rats [1]: 10.2% |
| O=C(O)c1cc(O)c2c(c1)C(=O)c1cccc(O)c1C2=O [Rhein] | 172453.1 ± 108249.8 | 478.1 ± 200.1 | 86.1 | inhibited | 422 ± 87.5 | 0.25 | 2.83 | 221 ± 84 | 80.9 | Vd/F ([1]; plasma): 41.4 ± 20.8 L/kg; half-life ([1]; plasma): 2.19 ± 0.812 h |
| COC(=O)C1=CO[C@@H](O[C@@H]2O[C@H](CO[C@@H]3O[C@H](CO)[C@@H](O)[C@H](O)[C@H]3O)[C@@H](O)[C@H](O)[C@H]2O)[C@@H]2C(CO)=CC[C@H]12 [genipin-1-β-D-gentiobiodide, Genipin-1-β-D-gentiobiodide] | 31749.4 ± 15408.0 | 106.8 ± 25.5 | 39.5 | – | 63.9 ± 10.1 | 0.25 | 3.14 | 1260 ± 165 | 17.7 | Vd/F ([1]; Sprague Dawley, plasma): 280 ± 254 L/kg; half-life ([1]; Sprague Dawley, plasma): 2.81 ± 3.01 h |

— paper PMC5962729 (Frontiers in Pharmacology, 2018)
